Here are results for five molecules from US3956274A, “New compound 6'-deoxy-'-substituted or unsubstituted amino-lividomycins and the production thereof” (Zaidan Hojin Biseibutsu Kagaku Kenkyu Kai, priority 1973, dated 1976).

Converted amounts (≈) assume the structure as drawn. Read-outs that look alike come from different tables or passages of the source.

Test [1] deals with kanamycin-resistant strains. The conditions noted are these: in words; cited from earlier work.
The test system of test [2] is Escherichia coli K-12 ML 1630. The test is described as follows: MIC, standard serial dilution method. Type of test: cell-based. Conditions: Escherichia coli, K12ML1630; E. coli K-12 ML 1630; nutrient agar, 37°C, 18 hours; read-out: Minimal inhibitory concentration. The protocol: (§1) The minimum inhibitory concentrations (mcg/ml) of 6'-amino-6'-deoxylividomycin B, 6'-deoxy-6'-methylaminolividomycin B and 6'-deoxy-6'-(2-hydroxyethylamino) lividomycin B against various microorganisms were determined according to a standard serial dilution method using nutrient agar incubation medium at 37°C, the estimation being effected after 18 hours incubation except for Mycobacterium smegmalis ATCC 607, in which the estimation being effected after 48 hours incubation. The minimum inhibitory concentrations (mcg/ml) of neomycin and lividomycin B were also determined in the same manner they also for comparison.

The test system of test [3] is Pseudomonas aeruginosa TI-13-1. In words: MIC, standard serial dilution method. The conditions noted are these: Pseudomonas aeruginosa, TI131; P. aeruginosa TI-13-1; nutrient agar, 37°C, 18 hours; read-out: Minimal inhibitory concentration. Type of test: cell-based. As for the experimental part:
as §1

Test [4] has as its system Escherichia coli K-12 LA 290 R 56. The test is described as follows: MIC, standard serial dilution method. It is filed as cell-based. The conditions noted are these: Escherichia coli, 18 h, read-out: Minimal inhibitory concentration. The protocol: as §1
The subject of test [5] is Escherichia coli K-12 ML 1410. In words: MIC, standard serial dilution method. It is filed as cell-based. The conditions noted are these: Escherichia coli, read-out: Minimal inhibitory concentration. The protocol:
as §1

Another test has as its system Sarcina lutea PCI 1001. In words: MIC, standard serial dilution method. Type of test: cell-based. Conditions: Micrococcus luteus, PCI1001, nutrient agar, 37°C, 18 hours, read-out: Minimal inhibitory concentration. The protocol: as §1
The test system of a further test is Escherichia coli NIHJ. In words: MIC, standard serial dilution method. It is filed as cell-based. Conditions: Escherichia coli; E. coli NIHJ; nutrient agar, 37°C, 18 hours; read-out: Minimal inhibitory concentration. The protocol: as §1
The subject of a further test is Proteus rettgeri GN 466. In words: MIC, standard serial dilution method. Type of test: cell-based. The conditions noted are these: Providencia rettgeri, read-out: Minimal inhibitory concentration. The protocol:
as §1

The test system of test [6] is Klebsiella pneumoniae type 22 No. 3038. The test is described as follows: MIC, standard serial dilution method. Type of test: cell-based. Conditions: Klebsiella pneumoniae, read-out: Minimal inhibitory concentration. The protocol:
as §1

For test [7], the system named is Klebsiella pneumoniae PCI 602. In words: MIC, standard serial dilution method. It is filed as cell-based. The conditions noted are these: Klebsiella pneumoniae, PCI602; K. pneumoniae PCI 602; nutrient agar, 37°C, 18 hours; read-out: Minimal inhibitory concentration. As for the experimental part:
as §1

The test system of test [8] is Escherichia coli K-12 LA 290 R 64. In words: MIC, standard serial dilution method. Conditions: Escherichia coli; E. coli K-12 LA 290 R 64; nutrient agar, 37°C, 18 hours; read-out: Minimal inhibitory concentration. It is filed as cell-based. The protocol: as §1
The test system of test [9] is Pseudomonas aeruginosa 99. The test is described as follows: MIC, standard serial dilution method. Type of test: cell-based. The conditions noted are these: read-out: Minimal inhibitory concentration. As for the experimental part: as §1
The test system of test [10] is Escherichia coli K-12 ML 1410 R 81. The test is described as follows: MIC, standard serial dilution method. Type of test: cell-based. Conditions: Escherichia coli, 18 h, read-out: Minimal inhibitory concentration. The protocol:
as §1

Test [11] has as its system Escherichia coli K-12 W 677. In words: MIC, standard serial dilution method. It is filed as cell-based. Conditions: Escherichia coli, read-out: Minimal inhibitory concentration. As for the experimental part: as §1
In test [12] the test system is Pseudomonas aeruginosa No.12. The test is described as follows: MIC, standard serial dilution method. It is filed as cell-based. Conditions: Pseudomonas aeruginosa; P. aeruginosa No.12; nutrient agar, 37°C, 18 hours; read-out: Minimal inhibitory concentration. The protocol:
as §1

A further test concerns Proteus rettgeri GN 311. The test is described as follows: MIC, standard serial dilution method. Type of test: cell-based. The conditions noted are these: Providencia rettgeri, GN311, nutrient agar, 37°C, 18 hours, read-out: Minimal inhibitory concentration. The protocol:
as §1

In test [13] the test system is Escherichia coli K-12 R-5. In words: MIC, standard serial dilution method. It is filed as cell-based. The conditions noted are these: Escherichia coli, K12R5; E. coli K-12 R-5; nutrient agar, 37°C, 18 hours; read-out: Minimal inhibitory concentration. The protocol:
as §1

The test system of test [14] is Escherichia coli K-12 J 5 R 11-2. The test is described as follows: MIC, standard serial dilution method. Type of test: cell-based. The conditions noted are these: Escherichia coli, K12J5R112; E. coli K-12 J 5 R 11-2; nutrient agar, 37°C, 18 hours; read-out: Minimal inhibitory concentration. The protocol: as §1
The test system of test [15] is Staphylococcus aureus FDA 209 P. The test is described as follows: MIC, standard serial dilution method. Conditions: Staphylococcus aureus, FDA209; S. aureus FDA 209 P; nutrient agar, 37°C, 18 hours; read-out: Minimal inhibitory concentration. Type of test: cell-based. As for the experimental part: as §1
Test [16] deals with Mycobacterium smegmatis ATCC 607. In words: MIC, standard serial dilution method. Type of test: cell-based. The conditions noted are these: Mycolicibacterium smegmatis, ATCC607, nutrient agar, 37°C, 48 hours, read-out: Minimal inhibitory concentration. The protocol: as §1
Test [17] concerns Bacillus subtilis NRRL B-558. The test is described as follows: MIC, standard serial dilution method. It is filed as cell-based. Conditions: Bacillus subtilis, NRRLB558; B. subtilis NRRL B-558; nutrient agar, 37°C, 18 hours; read-out: Minimal inhibitory concentration. The protocol:
as §1

The next test has as its system Escherichia coli K-12. In words: MIC, standard serial dilution method. The conditions noted are these: Escherichia coli, read-out: Minimal inhibitory concentration. It is filed as cell-based. As for the experimental part:
as §1

Test [18] deals with Pseudomonas aeruginosa A 3. In words: MIC, standard serial dilution method. Type of test: cell-based. Conditions: Pseudomonas aeruginosa, A3, 18 h, read-out: Minimal inhibitory concentration. As for the experimental part:
as §1

In a further test the test system is Salmonella typhosa T-63. In words: MIC, standard serial dilution method. It is filed as cell-based. The conditions noted are these: Salmonella enterica, TYPHOSA, 18 h, read-out: Minimal inhibitory concentration. The protocol: as §1
The test system of test [19] is Escherichia coli K-12 JR 66/W 677. The test is described as follows: MIC, standard serial dilution method. Type of test: cell-based. Conditions: Escherichia coli, 18 h, read-out: Minimal inhibitory concentration. As for the experimental part: as §1
(§2) In the above table, the mark * denotes the strain is a drug-resistant
(§3) strain of patient-origin.

The test system of test [20] is Pseudomonas aeruginosa GN 315. In words: MIC, standard serial dilution method. Conditions: Pseudomonas aeruginosa, GN315; P. aeruginosa GN 315, drug-resistant strain of patient-origin; nutrient agar, 37°C, 18 hours; read-out: Minimal inhibitory concentration. Type of test: cell-based. The protocol:
as §1, §2, §3

Test [21] concerns Escherichia coli K-12 LA 290 R 55. In words: MIC, standard serial dilution method. Type of test: cell-based. The conditions noted are these: Escherichia coli, 18 h, read-out: Minimal inhibitory concentration. The protocol:
as §1, §2, §3

The subject of test [22] is Escherichia coli K-12 ML 1629. The test is described as follows: MIC, standard serial dilution method. Type of test: cell-based. The conditions noted are these: Escherichia coli, K12ML1629; E. coli K-12 ML 1629, drug-resistant strain of patient-origin; nutrient agar, 37°C, 18 hours; read-out: Minimal inhibitory concentration. The protocol:
as §1, §2, §3

Take `NCC1OC(OC2C(N)CC(N)C(OC3OC(CO)C(O)C(N)C3O)C2O)C(O)CC1O` (centres unmarked) [3'-Deoxykananmycin, 3'-deoxykanamycin]: in test [1], the “activity against kanamycin-resistant strains” value (“activity” for short) was “actually effective”.

Take `NC[C@@H]1O[C@H](O[C@H]2[C@@H](O)[C@H](O[C@@H]3[C@@H](O)[C@H](N)C[C@H](N)[C@H]3O[C@H]3O[C@H](CNCCO)[C@@H](O)C[C@H]3N)O[C@@H]2CO)[C@H](N)[C@@H](O)[C@@H]1O` [HALVB, 6'-deoxy-6'-(2-hydroxyethylamino) lividomycin B]: the MIC was greater than 100 µg/mL in test [2]; greater than 100 µg/mL in test [3]; 0.78 µg/mL (≈ 1.21 µM) in [4]; 3.12 µg/mL (≈ 4.85 µM) in [5] (K12ML1410, E. coli K-12 ML 1410, nutrient agar, 37°C, 18 hours); 25 µg/mL (≈ 38.9 µM) in the test on Sarcina lutea PCI 1001; 3.12 µg/mL (≈ 4.85 µM) with Escherichia coli NIHJ. Also, the MIC with Proteus rettgeri GN 466 (GN466, 18 h) was 6.25 µg/mL (≈ 9.72 µM); in [6] (TYPE22NO.3038, K. pneumoniae type 22 No. 3038, nutrient agar, 37°C, 18 hours) it was 3.12 µg/mL (≈ 4.85 µM); in test [7] it was 0.78 µg/mL (≈ 1.21 µM); in test [8], 1.56 µg/mL (≈ 2.43 µM); in test [9] (Pseudomonas aeruginosa, P. aeruginosa 99, nutrient agar, 37°C, 18 hours) it was 25 µg/mL (≈ 38.9 µM); in test [10], greater than 100 µg/mL. Further, the MIC in test [11] (K12W677, 18 h) is 1.56 µg/mL (≈ 2.43 µM); in [12] it was 0.78 µg/mL (≈ 1.21 µM); in the test with Proteus rettgeri GN 311 it was 50 µg/mL (≈ 77.8 µM); in test [13] it was 1.56 µg/mL (≈ 2.43 µM); in [14], greater than 100 µg/mL; in test [15], 0.39 µg/mL (≈ 0.607 µM). The MIC in [16] is less than 0.2 µg/mL; in test [17] it was less than 0.2 µg/mL; in the test on Escherichia coli K-12 (K12, 18 h) it was 1.56 µg/mL (≈ 2.43 µM); in [18] it was 6.25 µg/mL (≈ 9.72 µM); with Salmonella typhosa T-63, 1.56 µg/mL (≈ 2.43 µM); in [19], 6.25 µg/mL (≈ 9.72 µM). Further, the MIC is 12.5 µg/mL (≈ 19.4 µM) in test [20], 1.56 µg/mL (≈ 2.43 µM) in test [21] and greater than 100 µg/mL in test [22].

Turning to `NC[C@@H]1CC[C@@H](N)[C@@H](O[C@H]2[C@H](O)[C@@H](O)[C@H](N)C[C@@H]2N)O1` [3', 4'-dideoxyneamine], the “activity” value in [1] is recorded as “actually effective”.

As to `NC[C@@H]1O[C@H](O[C@H]2[C@@H](O)[C@H](O[C@@H]3[C@@H](O)[C@H](N)C[C@H](N)[C@H]3O[C@H]3O[C@H](CN)[C@@H](O)C[C@H]3N)O[C@@H]2CO)[C@H](N)[C@@H](O)[C@@H]1O` [ALVB, 6'-amino-6'-deoxylividomycin B], the MIC in test [2] is 50 µg/mL (≈ 83.5 µM); in test [3], 100 µg/mL (≈ 167 µM); in test [4], 0.39 µg/mL (≈ 0.651 µM); in test [5] (K12ML1410, 18 h) it was 1.56 µg/mL (≈ 2.61 µM); in the test with Sarcina lutea PCI 1001, 0.78 µg/mL (≈ 1.3 µM); in the test with Escherichia coli NIHJ it was 0.78 µg/mL (≈ 1.3 µM). Further, the MIC in the test on Proteus rettgeri GN 466 (GN466, Proteus rettgeri GN 466, nutrient agar, 37°C, 18 hours) was determined as 3.12 µg/mL (≈ 5.21 µM); in test [6] (TYPE22NO.3038, 18 h) it was 1.56 µg/mL (≈ 2.61 µM); in test [7], 0.78 µg/mL (≈ 1.3 µM); in [9] (Pseudomonas aeruginosa, 99, 18 h), 1.56 µg/mL (≈ 2.61 µM); in test [10], 100 µg/mL (≈ 167 µM); in test [11] (K12W677, E. coli K-12 W 677, nutrient agar, 37°C, 18 hours), 0.78 µg/mL (≈ 1.3 µM). Also, the MIC was 0.78 µg/mL (≈ 1.3 µM) in test [12]; 25 µg/mL (≈ 41.8 µM) with Proteus rettgeri GN 311; 0.39 µg/mL (≈ 0.651 µM) in test [13]; 25 µg/mL (≈ 41.8 µM) in test [14]; less than 0.2 µg/mL in test [15]; less than 0.2 µg/mL in test [16]. Also, the MIC in test [17] was less than 0.2 µg/mL; with Escherichia coli K-12 (K12, E. coli K-12, nutrient agar, 37°C, 18 hours), 0.78 µg/mL (≈ 1.3 µM); in test [18] it was 1.56 µg/mL (≈ 2.61 µM); in the test with Salmonella typhosa T-63, 0.39 µg/mL (≈ 0.651 µM); in test [19] it was 1.56 µg/mL (≈ 2.61 µM); in test [20] it was 25 µg/mL (≈ 41.8 µM). In addition, the MIC in test [21] came out at 1.56 µg/mL (≈ 2.61 µM); in test [22], 50 µg/mL (≈ 83.5 µM).

For the molecule `NCC1CCC(N)C(OC2C(N)CC(N)C(OC3OC(CO)C(O)C(N)C3O)C2O)O1` (centres unmarked) [3', 4'-dideoxykanamycin B], in test [1], the “activity” value is on record as “actually effective”.
